Tested on: panel of DLBCL cell lines
Test: CellTiter-Glo proliferation, Compound 1 with BET inhibitor Compound B
Assay type: cell-based
Details: Combinations of Compound B and Compound 1; 40 DLBCL cell lines; 5 days
Experimental: A panel of DLBCL cell lines in the following table were treated with single-agent Compound 1, single agent Compound B (a BET inhibitor), along with the combinations of Compound 1 and Compound B, at a concentration range to investigate the antiproliferative activities.
Experimental procedures: CellTiter-Glo (CTG), a luminescent dye that measures adenosine-5′-triphosphate (ATP), was used to quantify the cell proliferation across a panel of 40 unique DLBCL cell lines. Single agents and combinations were pre-spotted into 384-well plates (diluted in final dimethyl sulfoxide [DMSO] concentration of 0.1% for a maximal volume of 50 μL). […]
For each DLBCL cell line, 50 μL of cell suspension at their respective seeding densities of 0.025 to 0.2×10^6 cells per mL were added to 384-well plates containing the compounds. The effect of the single agents and combinations on the proliferation/viability of cells was assessed after 5 days of incubation. Twenty-five microliters of CTG per well was then dispensed to the cell suspension, and ATP released by viable cells was measured after a 30-minute incubation as relative luminescence units (RLU) using an EnVision plate reader (PerkinElmer, Covina, CA). […]

O=C1CC[C@H](N2C(=O)c3cccc(NCc4ccc(CN5CC(N6CCOCC6)C5)cc4F)c3C2=O)C(=O)N1 [Compound 1, (S)-2-(2,6-dioxopiperidin-3-yl)-4-((2-fluoro-4-((3-morpholinoazetidin-1-yl)methyl)benzyl)amino)isoindoline-1,3-dione]
combination effect on proliferation (Bliss independence and HSA models): synergy and additivity in the majority of DLBCL cell lines
